Data as given in ChEMBL document CHEMBL1781907, “Expeditious synthesis and biological evaluation of novel 2,N6-disubstituted 1,2-dihydro-1,3,5-triazine-4,6-diamines as potential antimalarials” (Eur J Med Chem, 2011).

How the values were obtained:
Plasmodium falciparum [1] = experiment: Antimalarial activity against chloroquine and cycloguanil-resistant Plasmodium falciparum FCR-3/Gambia ring stage infected in human red blood cells assessed as inhibition of [3H]-hypoxanthine incorporation incubated 24 hrs before addition of [3H]-hypoxanthine measured after 24 hrs; assay type: functional, cell-based
[2] = Toxicity at human RBC assessed as haemolysis at 50 uM; assay type: cell-based; conditions: erythrocyte
Plasmodium falciparum [3] = experiment: Ratio of cycloguanil IC50 to compound IC50 for chloroquine and cycloguanil-resistant Plasmodium falciparum FCR-3/Gambia; assay type: functional

SMILES	IC50 (Plasmodium falciparum [1])	Activity [2]	Ratio IC50 (Plasmodium falciparum [3])
Cl.NC1=NC(c2ccc(C(F)(F)F)cc2)NC(NCCCOc2ccc(Cl)cc2)=N1 (stereo unspecified)	5.54 µM	Non-toxic	–
Cl.NC1=NC(c2ccc([N+](=O)[O-])cc2)NC(NCCCOc2ccc(Cl)cc2)=N1 (stereo unspecified)	7.39 µM	Non-toxic	–
CC1(C)N=C(N)N=C(NCc2ccccc2)N1.Cl	49.8 µM	Non-toxic	–
CC1(C)N=C(N)N=C(NCCc2ccc(Cl)cc2)N1.Cl	16.6 µM	Non-toxic	–
Cl.NC1=NC(c2ccccc2)NC(NCCCOc2ccccc2F)=N1 (stereo unspecified)	10.8 µM	Non-toxic	–
Cl.NC1=NC(C2CCCCC2)NC(NCCCOc2ccc(Cl)cc2)=N1 (stereo unspecified)	4.59 µM	Non-toxic	–
Cl.NC1=NC(c2ccccc2)NC(NCCCOc2ccc(Cl)cc2Cl)=N1 (stereo unspecified)	4.52 µM	Non-toxic	–
Cl.NC1=NC(c2ccco2)NC(NCCCOc2ccc(Cl)cc2)=N1 (stereo unspecified)	0.99 µM	Non-toxic	5
Cl.NC1=NC(c2ccccc2)NC(NCCCCOc2ccc(Cl)cc2)=N1 (stereo unspecified)	2.71 µM	Non-toxic	5
Cl.NC1=NC(c2ccc([N+](=O)[O-])cc2)NC(NCCc2ccc(Cl)c(Cl)c2)=N1 (stereo unspecified)	11.1 µM	Non-toxic	–
Cl.NC1=NC2(CCCCC2)NC(NCc2ccccc2)=N1	9.89 µM	Non-toxic	–
CC1(C)N=C(N)N=C(NCCCCOc2ccc(Cl)cc2)N1.Cl	7.2 µM	Non-toxic	–
Cl.NC1=NC(c2ccccc2)NC(NCCCOc2c(Cl)cc(Cl)cc2Cl)=N1 (stereo unspecified)	4.32 µM	Non-toxic	–
CN(C)c1ccc(C2N=C(N)N=C(NCCCOc3ccc(Cl)cc3)N2)cc1.Cl (stereo unspecified)	44.8 µM	Non-toxic	–
COc1ccc(C2N=C(N)N=C(NCCCOc3ccc(Cl)cc3)N2)cc1.Cl (stereo unspecified)	6.66 µM	Non-toxic	–
COc1ccc(OCCCNC2=NC(N)=NC(c3ccccc3)N2)cc1.Cl (stereo unspecified)	12.3 µM	Non-toxic	–
Cl.NC1=NC(c2ccccc2)NC(NCCCOc2ccccc2Cl)=N1 (stereo unspecified)	4.53 µM	Non-toxic	–
Cl.NC1=NC(c2ccccc2Cl)NC(NCCCOc2ccc(Cl)cc2)=N1 (stereo unspecified)	6.66 µM	Non-toxic	–
CC1(C)N=C(N)N=C(N)N1c1ccc(Cl)cc1 [CYCLOGUANIL]	5 µM	–	–
Cl.NC1=NC2(CCCCC2)NC(NCCCOc2ccc(Cl)cc2)=N1	7.94 µM	Non-toxic	–
CC1(C)N=C(N)N=C(NCCCOc2ccc(Cl)cc2)N1.Cl	11.3 µM	Non-toxic	–
Cl.NC1=NC(c2ccccc2)NC(NCCCOc2ccc(Cl)cc2)=N1 (stereo unspecified)	7.11 µM	Non-toxic	–
CC1(C)N=C(N)N=C(NCCCSc2ccc(Cl)cc2)N1.Cl	7.84 µM	Non-toxic	–
Cl.NC1=NC(c2ccccc2)NC(NCCCOc2ccc(Cl)c(Cl)c2)=N1 (stereo unspecified)	6.73 µM	Non-toxic	–
Cl.NC1=NC(c2ccccc2)NC(NCCCOc2ccc([N+](=O)[O-])cc2)=N1 (stereo unspecified)	3.87 µM	Non-toxic	–
Cl.NC1=NC(c2ccccc2)NC(NCCCCCOc2ccc(Cl)cc2)=N1 (stereo unspecified)	1.36 µM	Non-toxic	5
Cl.NC1=NC(c2ccccc2)NC(NCCCSc2ccc(Cl)cc2)=N1 (stereo unspecified)	1.3 µM	Non-toxic	5
Cl.NC1=NC(c2ccc(F)cc2)NC(NCCc2ccc(Cl)c(Cl)c2)=N1 (stereo unspecified)	8.41 µM	Non-toxic	–
Cl.NC1=NC(c2ccc(F)cc2)NC(NCCCOc2ccc(Cl)cc2)=N1 (stereo unspecified)	6.21 µM	Non-toxic	–
